Measured values from patent publication US5070207A, “Phospholipase A2 inhibitors” (American Home Products Corporation, priority 1990, dated 1991).

System: PLA2 (A. piscivorus piscivorus) induced paw edema
Test: in vivo PLA2 murine paw edema assay
Parameters: species or system mouse (male CD-1)
Settings: for ED50: Mus musculus, ip
Protocol: The ability of the compounds of the invention to inhibit paw edema induced by the exogenous administration of PLA2 is measured in the in vivo PLA2 murine paw edema assay.
Non-fasted, male CD-1 mice (8 weeks old; 31-36 grams) are placed in plastic boxes in groups of six. The right hind paw volume is measured using mercury plethysmography (zero time). Compounds are dosed orally (0.5 mL of 0.5% Tween-80) 1 or 3 hours prior to PLA2 injection or intravenously (0.2 mL in 0.3% dimethylsulfoxide/saline) 3 minutes prior to PLA2 injection. A solution of purified PLA2, from the diamond back cotton mouth snake (A. piscivorus piscivorus) is prepared in saline at a concentration of 6 μg/mL. Fifty (50) μL (0.3 μg) of this PLA2 solution is injected subcutaneously into the right hind paw with a plastic 1 mL plastic syringe (27 gauge, 1" needle). Paw volume of the injected paw is measured again at 10 minutes, 30 minutes and 60 minutes after PLA2 injection. Animals are euthanized with CO2 at the completion of the study.
The paw edema is calculated by subtracting the zero time volume from the volume recorded at each time period. Mean paw edema for each treatment group is then calculated and expressed as (μL±S.E.). Drug effects are expressed as a percent change from control (vehicle) values. Statistical significance is determined by a oneway analysis of variance with LSD comparison to control (p<0.05). ED50 's are determined using repression analysis.

## O=C(C#CCCCOc1ccc(F)cc1)C(F)(F)F [Example 3, 1,1,1-Trifluoro-7-(4-fluorophenoxy)-3-heptyn-2-one]
  ED50: 30 mg/kg

## Luffarrellolide [reference compound]
p.o., standard drugs
  ED50 at +10 min.: Not Active

## COc1ccc2cc([C@H](C)C(=O)O)ccc2c1 [Naproxen, reference compound]
p.o., standard drugs
  ED50 at +10 min.: 18 mg/kg

## CC(C)(C)c1ccc(OCCCC#CC(=O)C(F)(F)F)cc1 [Example 4, 7-[4-(1,1-Dimethylethyl)phenoxy]-1,1,1-trifluoro-3-heptyn-2-one]
30 mg/kg i.p.
  % Change in Edema 10 min: -45%

## COc1cccc2c1cc([N+](=O)[O-])c1c(C(=O)O)cc3c(c12)OCO3 [Aristolochic Acid, reference compound]
p.o., standard drugs
  ED50 at +10 min.: Not Active

## O=C(C#CCCCOc1ccc(Cl)cc1)C(F)(F)CCc1ccccc1 [Example 7, 9-(4-Chlorophenoxy)-3,3-difluoro-1-phenyl-5-nonyn-4-one]
  ED50: 3 mg/kg

## C[C@@H]1C[C@H]2[C@@H]3CCC4=CC(=O)C=C[C@]4(C)[C@@]3(F)[C@@H](O)C[C@]2(C)[C@@]1(O)C(=O)CO [Dexamethasone, reference compound]
p.o. 3 hr, standard drug
  ED50 at +10 min.: 10 mg/kg

## O=C(C#CCCCOc1ccc(Cl)cc1)C(F)(F)F [Example 1, 7-(4-Chlorophenoxy)-1,1,1-trifluoro-3-heptyn-2-one]
10 mg/kg i.v.
  % Change in Edema 10 min: -64%
  % Change in Edema 30 min: -34%
  % Change in Edema 60 min: -39%
100 mg/kg p.o.
  % Change in Edema 10 min: -26%
  % Change in Edema 30 min: -37%
  % Change in Edema 60 min: -23%
  ED50: 3 mg/kg

## O=C(C#CCCCn1c2ccccc2c2ccccc21)C(F)(F)F [Example 2, 7-(9H-Carbazol-9-yl)-1,1,1-trifluoro-3-heptyn-2-one]
  ED50: 1 mg/kg
